Measured values: ChEMBL document CHEMBL3608278 (J Med Chem, 2015)

Experiments:
[1] = target: T1, Potassium voltage-gated channel subfamily A member 3 (Homo sapiens, UniProt P22001); format: cell-based, CHO-K1
[2] = target: T1, Potassium voltage-gated channel subfamily A member 3; parameters: species or system Blood
[3] = target: T1, Potassium voltage-gated channel subfamily A member 3; assay: cell-based; parameters: species or system Blood

T1 sequence (P22001 whole entry): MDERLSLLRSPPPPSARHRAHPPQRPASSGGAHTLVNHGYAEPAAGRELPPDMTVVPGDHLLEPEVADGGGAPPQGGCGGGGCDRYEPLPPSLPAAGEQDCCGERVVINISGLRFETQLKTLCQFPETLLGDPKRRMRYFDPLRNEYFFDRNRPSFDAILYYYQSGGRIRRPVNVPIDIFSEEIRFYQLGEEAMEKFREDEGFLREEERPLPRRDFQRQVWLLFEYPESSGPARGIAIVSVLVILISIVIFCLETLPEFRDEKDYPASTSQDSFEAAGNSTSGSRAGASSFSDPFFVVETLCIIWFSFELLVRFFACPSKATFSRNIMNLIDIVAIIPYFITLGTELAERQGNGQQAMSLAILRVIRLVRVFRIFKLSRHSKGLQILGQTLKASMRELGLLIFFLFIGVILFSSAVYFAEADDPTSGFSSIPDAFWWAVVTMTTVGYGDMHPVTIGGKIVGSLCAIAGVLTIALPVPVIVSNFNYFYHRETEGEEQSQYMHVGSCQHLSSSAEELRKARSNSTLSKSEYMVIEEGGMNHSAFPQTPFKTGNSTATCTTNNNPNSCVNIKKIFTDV

| Structure (SMILES) | IC50 [1] [nM] | IC50 [2] [nM] | IC50 [3] [nM] |
| --- | --- | --- | --- |
| CC[C@H](C)[C@@H]1NC(=O)[C@@H](NC(=O)[C@H](CO)NC(=O)[C@@H](N)CCCNC(=N)N)CSSC[C@@H](C(=O)O)NC(=O)[C@H]([C@@H](C)O)NC(=O)CNC(=O)[C@@H]2CSSC[C@@H]3NC(=O)[C@H](CCC(N)=O)NC(=O)[C@H](Cc4ccccc4)NC(=O)[C@H](C)NC(=O)[C@H]([C@@H](C)O)NC(=O)[C@H](CSSC[C@H](NC(=O)[C@H](Cc4ccccc4)NC(=O)[C@H](CO)NC(=O)[C@H](CC(C)C)NC(=O)[C@H](CCCNC(=N)N)NC(=O)[C@H](Cc4ccc(O)cc4)NC(=O)[C@H](CCCCN)NC(=O)[C@H](CCSC)NC(=O)[C@H](CCCNC(=N)N)NC(=O)[C@H](Cc4cnc[nH]4)NC(=O)[C@H](CCCCN)NC3=O)C(=O)N[C@@H](CCCNC(=N)N)C(=O)N[C@@H](CCCCN)C(=O)N[C@@H]([C@@H](C)O)C(=O)N2)NC(=O)[C@H](CCCNC(=N)N)NC(=O)[C@H](CO)NC(=O)[C@H](CCCCN)NC(=O)[C@@H]2CCCN2C(=O)[C@H]([C@@H](C)CC)NC(=O)[C@H]([C@@H](C)O)NC(=O)[C@H](CC(=O)O)NC1=O | > 3.33 | 40.3 | 25.3 |
| CC[C@H](C)[C@@H]1NC(=O)[C@@H](NC(=O)[C@H](CO)NC(=O)[C@@H](N)CCCNC(=N)N)CSSC[C@@H](C(=O)O)NC(=O)[C@H]([C@@H](C)O)NC(=O)CNC(=O)[C@@H]2CSSC[C@@H]3NC(=O)[C@H](CCC(N)=O)NC(=O)[C@H](Cc4ccccc4)NC(=O)[C@H](C)NC(=O)[C@H]([C@@H](C)O)NC(=O)[C@H](CSSC[C@H](NC(=O)[C@H](Cc4ccccc4)NC(=O)[C@H](CO)NC(=O)[C@H](CC(C)C)NC(=O)[C@H](CCCNC(=N)N)NC(=O)[C@H](Cc4ccc(O)cc4)NC(=O)[C@H](CCCCN)NC(=O)[C@H](CCCNC(=N)N)NC(=O)[C@H](CO)NC(=O)[C@H](Cc4cnc[nH]4)NC(=O)[C@H](CCCCN)NC3=O)C(=O)N[C@@H](CCCNC(=N)N)C(=O)N[C@@H](CCCCN)C(=O)N[C@@H]([C@@H](C)O)C(=O)N2)NC(=O)[C@H](CCCNC(=N)N)NC(=O)[C@H](CO)NC(=O)[C@H](CCCCN)NC(=O)[C@@H]2CCCN2C(=O)[C@H]([C@@H](C)CC)NC(=O)[C@H]([C@@H](C)O)NC(=O)[C@H](CC(=O)O)NC1=O | 0.259 | 3.08 | 1.49 |
| CC[C@H](C)[C@@H]1NC(=O)[C@@H](NC(=O)[C@H](CO)NC(=O)[C@@H](N)CCCNC(=N)N)CSSC[C@@H](C(=O)O)NC(=O)[C@H]([C@@H](C)O)NC(=O)CNC(=O)[C@@H]2CSSC[C@@H]3NC(=O)[C@H](CCC(N)=O)NC(=O)[C@H](Cc4ccccc4)NC(=O)[C@H](C)NC(=O)[C@H]([C@@H](C)O)NC(=O)[C@H](CSSC[C@H](NC(=O)[C@H](Cc4ccccc4)NC(=O)[C@H](CO)NC(=O)[C@H](CC(C)C)NC(=O)[C@H](CCCNC(=N)N)NC(=O)[C@H](Cc4ccc(O)cc4)NC(=O)[C@H](CCCNC(=N)N)NC(=O)[C@H](CCSC)NC(=O)[C@H](CO)NC(=O)[C@H](Cc4cnc[nH]4)NC(=O)[C@H](CCCCN)NC3=O)C(=O)N[C@@H](CCCNC(=N)N)C(=O)N[C@@H](CCCCN)C(=O)N[C@@H]([C@@H](C)O)C(=O)N2)NC(=O)[C@H](CCCNC(=N)N)NC(=O)[C@H](CO)NC(=O)[C@H](CCCCN)NC(=O)[C@@H]2CCCN2C(=O)[C@H]([C@@H](C)CC)NC(=O)[C@H]([C@@H](C)O)NC(=O)[C@H](CC(=O)O)NC1=O | > 3.33 | > 100 | > 100 |
